The text below walks through data of US8575156B2, “Cyclic inhibitors of 11β-hydroxysteroid dehydrogenase 1” (Vitae Pharmaceuticals, Inc., priority 2007, dated 2013).

This test has as its target 11β-HSD1 (Homo sapiens, UniProt P28845). The test is described as follows: biochemical. As to conditions: for IC50: IC50 Range, Biological Test Example 1, microsomes from CHO cells overexpressing human 11β-HSD1; for inhibition at 0.1 µM: read-out: Average % inhibition at 100 nM, Biological Test Example 1.
The mark [1] stands for this setting: read-out: Average % inhibition at 111.1 nM, Biological Test Example 1, 111.1 nM compound.
[2] abbreviates: read-out: Average % inhibition at 111.1 nM, Biological Test Example 1, 111.1 nM.

Where two headings read alike, the source gives them in different places. Bounds are passed on as bounds.

Chain of 11β-HSD1 (P28845 whole entry): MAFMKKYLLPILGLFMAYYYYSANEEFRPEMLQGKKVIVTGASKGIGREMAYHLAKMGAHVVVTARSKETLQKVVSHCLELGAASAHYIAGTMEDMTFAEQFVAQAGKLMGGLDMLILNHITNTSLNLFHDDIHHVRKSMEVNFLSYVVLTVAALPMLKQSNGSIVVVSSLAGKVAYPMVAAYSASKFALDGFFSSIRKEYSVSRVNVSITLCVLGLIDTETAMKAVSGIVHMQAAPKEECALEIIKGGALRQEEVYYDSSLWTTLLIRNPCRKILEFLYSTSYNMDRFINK

Usually IC50 stands for the concentration that gives 50% inhibition. A high value points to a need for much substance. Usually inhibition stands for the share of the control response that was lost under treatment. Consider `C[C@@H](c1ccc(-c2ccc(F)cc2F)cc1)N1CC[C@](CCCOP(=O)(O)O)(c2ccccc2)OC1=O` [EXAMPLE 492, 3-((R)-3-((S)-1-(2′,4′-difluorobiphenyl-4-yl)ethyl)-2-oxo-6-phenyl-1,3-oxazinan-6-yl)propyl dihydrogen phosphate], for which the IC50 is < 0.1 µM. Moreover, the inhibition at 0.1 µM (100 nM) was 87.7%.

Turning to `C[C@H](c1ccccc1)N1CCC(C)(c2ccccc2)OC1=O` (single isomer, unassigned) [EXAMPLE 83 Isomer 1], the IC50 was 0.1 to 1 µM. Also, under setting [1], the inhibition at 0.1111 µM was determined as 50.3%.

`CC(O)c1ccc(-c2ccc([C@H](C)N3CC[C@](CCCO)(c4ccccc4)OC3=O)cc2)s1` (stereo partly drawn) [EXAMPLE 254, (6R)-3-((1S)-1-(4-(5-(1-hydroxyethyl)thiophen-2-yl)phenyl)ethyl)-6-(3-hydroxypropyl)-6-phenyl-1,3-oxazinan-2-one]: the concentration for half-maximal inhibition (IC50) was < 0.1 µM. Further, under “100 nM compound”, the inhibition at 0.1 µM came out at 96%.

`Cc1ccc(C2(C)CCN([C@@H](C)c3ccccc3)C(=O)O2)cc1` (stereo partly drawn) [EXAMPLE 88, 6-methyl-3-((S)-1-phenylethyl)-6-p-tolyl-1,3-oxazinan-2-one]: the IC50 was < 0.1 µM. Under setting [1], the inhibition at 0.1111 µM is 97.1%.

Consider `O=C1OC(CCO)(c2ccccc2F)CCN1c1cccc(-c2ccc(F)cc2)n1` (centres unmarked) [EXAMPLE 104, 6-(2-fluorophenyl)-3-(6-(4-fluorophenyl)pyridin-2-yl)-6-(2-hydroxyethyl)-1,3-oxazinan-2-one], for which the IC50 was < 0.1 µM. Further, under setting [1], the inhibition at 0.1111 µM was 85.7%.

`CC1(c2ccccc2)CCN(c2cccc(-c3cccc(N)c3)c2)C(=O)O1` (centres unmarked) [EXAMPLE 32, 3-(3′-aminobiphenyl-3-yl)-6-methyl-6-phenyl-1,3-oxazinan-2-one] had a 50% inhibitory concentration (IC50) of 0.1 to 1 µM. The inhibition at 0.1111 µM under setting [1] was 46%.

Regarding `C=CCC1(c2ccc(F)cc2)CCN(Cc2c(Cl)cccc2Cl)C(=O)O1` (centres unmarked) [EXAMPLE 346, 6-allyl-3-(2,6-dichlorobenzyl)-6-(4-fluorophenyl)-1,3-oxazinan-2-one], the IC50 was < 0.1 µM. The inhibition at 0.1 µM (100 nM) was 94%.

`C[C@@H](c1ccc(S(C)(=O)=O)cc1)N1CC[C@](CCO)(c2ccc(F)cc2)OC1=O` [EXAMPLE 308, (S)-6-(4-fluorophenyl)-6-(2-hydroxyethyl)-3-((S)-1-(4-(methylsulfonyl)phenyl)ethyl)-1,3-oxazinan-2-one]: the IC50 was > 1 µM. In addition, the inhibition at 0.1 µM (100 nM) turned out to be 25%. Further, under setting [2], the inhibition at 0.1111 µM was 8.6%.

For `NC(=O)c1ccc(N2CCC[C@H](N3CC[C@](CCCO)(c4ccc(F)cc4)OC3=O)C2)nc1` [EXAMPLE 584, 6-((S)-3-((R)-6-(4-fluorophenyl)-6-(3-hydroxypropyl)-2-oxo-1,3-oxazinan-3-yl)piperidin-1-yl)nicotinamide], the inhibition at 0.1111 µM under setting [2] was found to be 77%.

`CC1CC(CCO)(c2ccc(F)cc2)OC(=O)N1[C@@H](C)c1ccc(Br)cc1` (single isomer, unassigned) [EXAMPLE 163 Isomer 1]: the IC50 is < 0.1 µM. Under setting [1], the inhibition at 0.1111 µM turned out to be 66.8%.

In the case of `CC1(c2ccccc2)CCN(c2ccnc(-c3cccc(F)c3)n2)C(=O)O1` (centres unmarked) [EXAMPLE 56, 3-(2-(3-fluorophenyl)pyrimidin-4-yl)-6-methyl-6-phenyl-1,3-oxazinan-2-one], the IC50 was in the range of 0.1 to 1 µM. Further, the inhibition at 0.1111 µM (read-out: Average % inhibition at 111.1 nM) is 5.6%.

Regarding `CN(C)C(=O)c1ccc(-c2cccc(N3CCC(C)(c4ccccc4)OC3=O)c2)cc1` (centres unmarked) [EXAMPLE 42, N,N-dimethyl-3′-(6-methyl-2-oxo-6-phenyl-1,3-oxazinan-3-yl)biphenyl-4-carboxamide], the IC50 was 0.1 to 1 µM. Also, the inhibition at 0.1111 µM under setting [1] was 36.7%.

Turning to `CC1(c2ccccc2)CCN(c2cccc(-c3ccccc3C#N)c2)C(=O)O1` (centres unmarked) [EXAMPLE 12, 3′-(6-Methyl-2-oxo-6-phenyl-[1,3]oxazinan-3-yl)-biphenyl-2-carbonitrile], the IC50 is < 0.1 µM. Also, the inhibition at 0.1111 µM under setting [1] amounted to 86.4%.

Take `C[C@@H](c1ccccc1)N1CCC(C)(c2ccc(CN3CCOCC3)cc2)OC1=O` (stereo partly drawn) [EXAMPLE 92, 6-methyl-6-(4-(morpholinomethyl)phenyl)-3-((S)-1-phenylethyl)-1,3-oxazinan-2-one]: the IC50 was 0.1 to 1 µM. In addition, under setting [1], the inhibition at 0.1111 µM was determined as 35%.

For `CC(C)C1(CCCO)CCN([C@@H](C)c2ccc(-c3ccc(F)cc3F)cc2)C(=O)O1` (single isomer, unassigned) [EXAMPLE 212 Isomer 1], the half-maximal inhibitory concentration (IC50) is < 0.1 µM. Further, the inhibition at 0.1 µM (100 nM compound) came out at 96.8%.

Regarding `C[C@@H](C1CCCCC1)N1CC[C@](CCCO)(c2ccc(F)cc2)OC1=O` [EXAMPLE 122, (R)-3-((S)-1-cyclohexylethyl)-6-(4-fluorophenyl)-6-(3-hydroxypropyl)-1,3-oxazinan-2-one], the 50% inhibitory concentration (IC50) was < 0.1 µM. Further, the inhibition at 0.1 µM (100 nM compound) amounted to 94.1%. The inhibition at 0.1111 µM under setting [1] was found to be 95.6%.

For the compound `Cc1nnc(CC[C@]2(c3ccccc3)CCN([C@@H](C)c3ccc(Br)cc3)C(=O)O2)s1` [EXAMPLE 601, (R)-3-((S)-1-(4-bromophenyl)ethyl)-6-(2-(5-methyl-1,3,4-thiadiazol-2-yl)ethyl)-6-phenyl-1,3-oxazinan-2-one], the half-inhibitory concentration (IC50) was < 0.1 µM. Besides, for the setting “100 nM”, the inhibition at 0.1 µM was determined as 89.4%.

For the compound `CC1(c2cccc(Cl)c2)CCN(c2cccc(-c3ccccc3)c2)C(=O)O1` (centres unmarked) [EXAMPLE 79, 3-(biphenyl-3-yl)-6-(3-chlorophenyl)-6-methyl-1,3-oxazinan-2-one], the 50% inhibitory concentration (IC50) is < 0.1 µM. Moreover, the inhibition at 0.1111 µM under setting [1] is 75.3%.

For the compound `C=CC[C@]1(c2ccc(F)cc2)CCN([C@@H](C)c2ccc(C(=O)NC)cc2)C(=O)O1` [EXAMPLE 155, 4-((S)-1-((R)-6-allyl-6-(4-fluorophenyl)-2-oxo-1,3-oxazinan-3-yl)ethyl)-N-methylbenzamide], the IC50 fell in the range of 0.1 to 1 µM. Moreover, the inhibition at 0.1111 µM under setting [1] stood at 45.6%.

For the compound `COC(=O)c1ccccc1CN1CC[C@](CCCO)(c2ccc(F)cc2)OC1=O` [EXAMPLE 352, (R)-methyl 2-((6-(4-fluorophenyl)-6-(3-hydroxypropyl)-2-oxo-1,3-oxazinan-3-yl)methyl)benzoate], the half-maximal inhibitory concentration (IC50) is < 0.1 µM. Moreover, the inhibition at 0.1 µM (100 nM) was determined as 60.8%.

Consider `CC(=O)NCC(C)(C)C[C@]1(c2ccc(F)cc2)CCN([C@@H](C)c2ccc(Br)cc2)C(=O)O1` [EXAMPLE 605, N-(3-((R)-3-((S)-1-(4-bromophenyl)ethyl)-6-(4-fluorophenyl)-2-oxo-1,3-oxazinan-6-yl)-2,2-dimethylpropyl)acetamide], for which the IC50 is < 0.1 µM. The inhibition at 0.1 µM (100 nM) came out at 85.8%.

For `C[C@@H](c1ccc(-c2cccc(CN)c2)cc1)N1CC[C@](CCCO)(c2ccccc2)OC1=O` [EXAMPLE 493, (R)-3-((S)-1-(3′-(aminomethyl)biphenyl-4-yl)ethyl)-6-(3-hydroxypropyl)-6-phenyl-1,3-oxazinan-2-one], the 50% inhibitory concentration (IC50) is < 0.1 µM. Where the note is “100 nM”, the inhibition at 0.1 µM is 89.1%.

For the compound `C[C@@H](c1ccc(Cl)cc1F)N1CC[C@](CCCNS(C)(=O)=O)(c2ccc(F)cc2)OC1=O` [EXAMPLE 602, N-(3-((R)-3-((S)-1-(4-chloro-2-fluorophenyl)ethyl)-6-(4-fluorophenyl)-2-oxo-1,3-oxazinan-6-yl)propyl)methanesulfonamide], the 50% inhibitory concentration (IC50) is < 0.1 µM. In addition, the inhibition at 0.1 µM (100 nM) is 98.6%.

On to `C[C@@H](c1ccc(Br)cc1)N1CC[C@](CC(C)(C)CNS(C)(=O)=O)(c2ccc(F)cc2)OC1=O` [EXAMPLE 608, N-(3-((R)-3-((S)-1-(4-bromophenyl)ethyl)-6-(4-fluorophenyl)-2-oxo-1,3-oxazinan-6-yl)-2,2-dimethylpropyl)methanesulfonamide], for which the IC50 was < 0.1 µM. The inhibition at 0.1 µM (100 nM) stood at 84.7%.

`C[C@@H](c1ccc(Br)cc1)N1CC[C@](CCCO)(c2ccc(F)cc2F)OC1=O` [EXAMPLE 366, (R)-3-((S)-1-(4-bromophenyl)ethyl)-6-(2,4-difluorophenyl)-6-(3-hydroxypropyl)-1,3-oxazinan-2-one]: the concentration for half-maximal inhibition (IC50) was < 0.1 µM. Moreover, the inhibition at 0.1 µM (100 nM) was 95.1%.

Turning to `C=CC[C@]1(c2ccc(F)cc2)CCN([C@@H](C)c2ccc(Cl)c(F)c2)C(=O)O1` (single isomer, unassigned) [EXAMPLE 497 Isomer 2], the IC50 was < 0.1 µM.

Turning to `CC(=O)c1ccc(-c2ccc([C@H](C)N3CC[C@](CCCO)(c4ccccc4)OC3=O)cc2)s1` [EXAMPLE 249, (R)-3-((S)-1-(4-(5-acetylthiophen-2-yl)phenyl)ethyl)-6-(3-hydroxypropyl)-6-phenyl-1,3-oxazinan-2-one], the IC50 was < 0.1 µM. For the same compound, the inhibition at 0.1 µM (100 nM compound) worked out at 96.3%.

For the compound `O=C1OC(CCO)(c2ccccc2F)CCN1c1cccc(-c2ccc(F)cc2Cl)n1` (centres unmarked) [EXAMPLE 50, 3-(6-(2-chloro-4-fluorophenyl)pyridin-2-yl)-6-(2-fluorophenyl)-6-(2-hydroxyethyl)-1,3-oxazinan-2-one], the IC50 was < 0.1 µM. The inhibition at 0.1111 µM under setting [1] came to 96.3%.

On to `COc1ccc([C@H](C)N2CC[C@](C)(c3ccc(CO)cc3)OC2=O)cc1` (single isomer, unassigned) [EXAMPLE 429 Isomer 1], for which the IC50 is < 0.1 µM. The inhibition at 0.1 µM (100 nM) was 77.9%.

As for `CC(=O)C[C@]1(c2ccc(F)cc2)CCN([C@@H](C)c2ccc(OC(F)F)cc2)C(=O)O1` [EXAMPLE 321, (S)-3-((S)-1-(4-(difluoromethoxy)phenyl)ethyl)-6-(4-fluorophenyl)-6-(2-oxopropyl)-1,3-oxazinan-2-one], the IC50 was < 0.1 µM. Further, the inhibition at 0.1 µM (100 nM) was found to be 96.1%.

For `C[C@@H](c1ccc(Cl)cc1)N1CC[C@](CCCNS(C)(=O)=O)(c2ccc(F)cc2)OC1=O` [EXAMPLE 384, N-(3-((R)-3-((S)-1-(4-chlorophenyl)ethyl)-6-(4-fluorophenyl)-2-oxo-1,3-oxazinan-6-yl)propyl)methanesulfonamide], the IC50 is < 0.1 µM. Under “100 nM”, the inhibition at 0.1 µM worked out at 89.2%.
